Test [1] has as its system hyperproliferative psoriatic keratinocytes. The test can be described thus: differentiation assay (K1/K10 mRNA, Northern blot / RT-PCR) on hyperproliferative psoriatic keratinocytes. Type of test: cell-based, human. As for the experimental part: RNA extraction is carried out according to the manufacturers instructions using the RNeasy kit (QIAGEN). 20 μg of RNA for each treatment was separated on a 1.2% agarose (1.8% formaldehyde) gel and transferred onto a nylon membrane (Zeta probe GT membranes, BioRad) by capillary transfer. The RNA is fixed to the membrane by UV crosslinking. DNA probes for the differentiation markers K1 and K10(50 ng) are labelled with [α-^32P] dCTP using the Prime-It RmT Primer labeling kit (Stratagene) following the manufacturer's instructions. Unincorporated nucleotides are removed by elution through a Microspin G25 column (Pharmacia Biotech). The blots are wetted in 0.25M sodium phosphate (pH 7.2)/7% SDS for 30 minutes at 65° C. Fresh hybridisation solution is added along with the radiolabelled probe and the blot is hybridised overnight at 65° C.
The blot is washed for 2×5 minutes in 0.25M sodium phosphate (pH 7.2), 7% SDS and then for 2×5 minutes in 20 mM sodium phosphate (pH 7.2), 5% SDS at 65° C. The wash steps are repeated until a clear distinction can be made between the signal and non-specific background. The blot is exposed to x-ray film for 24 hours before developing.
Synthesis of mRNA for the K1 and K10 keratin (markers for commitment to terminal differentiation) is examined by quantitative reverse transcription PCR (RT-PCR). Synthesis of mRNA for Cyclin D (a marker for cell proliferation) is also assayed by RT-PCR. Standard protocol for RT-PCR is followed as recommended by the manufacturer of the PCR machine (PE 2400) using 1 μg RNA from each keratinocyte culture. Suitable primers for RT-PCR are designed based on the human sequences of K1 and K10 deposited in GenBank. Northern blots are also performed: cells are harvested, RNA extracted and 20 μg RNA loaded into each well of a formaldehyde/agarose gel. The RNA is blotted onto a nylon membrane by capillary transfer and expression of K1 mRNA is determined by Northern hybridisation with a radiolabelled DNA probe.
Next, hyperproliferative epidermal keratinocytes are obtained, isolated and cultured as described above in Example 3. Hyperproliferative psoriatic keratinocytes are cultured as described above in serum-free medium with or without the addition of […] human retinol binding protein. At confluence the cells are treated (see Table 3 below) for 96 hours with peptides to 6 μM (medium replaced after 48 hours). Treatments shown in the Table 3 are for duplicate T-25 flasks (2×7 ml for each treatment).
The final concentrations are: Ca^2+ 1.2 mM, RBP 0.6 μM, peptides 6 μM.
Expression of K1 and K10 markers is determined as described above in Example 4. […]
Synthesis of mRNA for markers of proliferation and differentiation is also examined by semi-quantitative reverse transcription PCR (RT-PCR). […]

For test [2] the test system is unchanged. The experiment in a line: proliferation assay (Coulter cell counter) on hyperproliferative psoriatic keratinocytes. It counts as cell-based, human. The source says:
Biopsy samples are obtained from psoriatic patients. Skin from patients with chronic plaque psoriasis are obtained with informed consent. Ethical approval has been obtained previously from The South Sheffield Regional Ethics Committee. Biopsies are all be taken from the lower back in psoriasis patients aged 40 to 60.
Remove subcutaneous tissue and some of the dermis with scissors, dissect skin into 1×2 cm pieces with a scalpel. Rinse the tissue 2-5 times in PBSA. Float skin samples on 0.6% Trypsin in PBSA (pH 7.4) ON at 4° C. (or alternatively for 20-30 min at 37° C.)
The separation of the epidermis is carefully monitored. When the first detachment of the epidermis is visible at the cut edges of the skin sample place the pieces (dermis-side down) in 100 mm Petri dishes. Irrigate with 5 ml of complete culture medium (incl. serum). Peel off the epidermis with forceps and collect it in a 50 ml centrifuge tube containing 20 ml of complete culture medium (KGM). Separate the keratinocytes from the epidermal cells by gently pipetting and sieving through a nylon gauze of 100 μm mesh. Wash the isolated epidermal cells twice in KGM by centrifugation at 100 g for 10 min, and count the total number of cells.
Cells are seeded at 37° C. in KGM medium at a density of 2500 cells/cm^2 in a 25 cm^2 cell culture flask. The medium is replaced every 48 hours and cells are passaged when confluent.
Cell Seeding and Analysis: Purchased secondary cultures or primary cultures (from donor skin) are seeded at 3500 cells/cm^2 in K-SFM 25 cm^2 tissue culture flasks. The medium is changed (5 ml per flask) the day after seeding and every other day thereafter. At 70-80% confluence the cells are subcultured by seeding 3500 cells per well in 24 well cell culture plates, each well containing 500 μl of K-SFM. One well plate is seeded for each treatment. After allowing one day for settling the cells are switched to experimental medium (500 μl per well). Stock solutions of additions are as before. Experimental treatments are as follows:
The medium is replaced every other day. Cells are harvested by trypsinisation. 500 μl Trypsin/EDTA is added to each well to be harvested and then aspirated off. The well plates are incubated for 5-6 min at 37° C. 500 μl PBS is added to the wells and the cells are resuspended. The cell suspension is added to 20 ml Isoton solution in a Coulter counter “Accuvette” and the cells are counted. On each harvest, 3 wells of cells are counted for each treatment and 3 counts were made for each well.
Cell number is calculated as follows: Coulter Counter removes 500 μl of 20 ml sample ( 1/40). Multiply cell count by 40 to obtain cell number in cup, this equals the total number of cells in one well (approximately, as ˜10% taken out for viability test). […]

Another test deals with COS-7 cells. The test can be described thus: proliferation assay of COS-7 cells (Coulter counter). It counts as cell-based. The conditions noted are these: P142 1 mg/ml, peptides 6 μM; 24 and 48 hours after treatment; FIG. 8. The protocol: (§1) […] (COS1 and COS7) are purchased from the European Cell Culture Collection, thawed and propagated according to the instructions from the supplier; cells are cultured essentially in the same manner as for normal human keratinocytes (Example 3 above), except that cells are seeded at 20 000 cells/cm^2, with only one treatment with antibody P142, control immunoglobulin, peptide 589, peptide 592 or control peptide 24 hrs after seeding.
(§2) Proliferation is assayed by counting cells in a Coulter counter, as described above.

The subject of test [3] is human dermal fibroblast cells. The experiment in a line: proliferation assay of human dermal fibroblast cells. Type of test: cell-based. The conditions noted are these: P142 1 mg/ml, peptides 6 μM; 24 hours and 4 days after treatment; FIG. 9. As for the experimental part: Fibroblast cell culture is performed essentially as described for culture of hyperproliferative psoriatic keratinocytes (Example 3), except that following irrigation with complete culture medium, the dermal portion is incubated with 1 mg/ml of collagenase (Sigma) in 20 ml DMEM in a 50 ml centrifuge tube for 16 hours at 37° C. Then 20 ml DMEM containing 5% foetal calf serum and 1% antibiotic/antimycotic solution (Gibco) is added and the cells seeded at 37° C. in DMEM medium+additions at a density of 2500 cells/cm^2 in a 25 cm^2 cell culture flask. Medium is replaced every 48 hours and cells passaged when confluent.
Fibroblast cell culture and experiments are performed essentially as described for culture of hyperproliferative psoriatic keratinocytes (above), except that following irrigation with complete culture medium, the dermal portion is processed further. Reference is made to fibroblast culture protocols set out above.
Proliferation of cells is assayed by direct cell counting essentially as for determination of proliferation in keratinocyte cell cultures. RDH, ADH, RalDH inhibitors are found to reduce proliferation.

Another test deals with COS-1 cells. The test can be described thus: proliferation assay of COS-1 cells (Coulter counter). Type of test: cell-based. The note with it: P142 1 mg/ml, peptides 6 μM; 24 and 48 hours after treatment; FIG. 7. The protocol: as §1, §2
[4] abbreviates: peptides 6 μM, Ca2+ 1.2 mM, RBP 0.6 μM.

Entries after “also recorded” stand apart in the source; their conditions may differ. Where no end group is shown, it is not given here.

Turning to `CC1=C(/C=C/C(C)=C/C=C/C(C)=C/CO)C(C)(C)CCC1` [retinol, (2E,4E,6E,8E)-3,7-dimethyl-9-(2,6,6-trimethylcyclohex-1-en-1-yl)nona-2,4,6,8-tetraen-1-ol, reference compound], the “effect of RBP or ROL on differentiation” value in test [1] (under differentiation pressure from 1.2 mM calcium) is recorded as “inhibition of differentiation”. Also, the “keratinocyte proliferation on addition of retinol or retinoic acid” value in test [2] (1.2 mM Ca2+, 2 μM ROL, FIG. 10) is recorded as “induced”.

With MKYWGVASFLQKGND [Peptide 592], the “differentiation (expression of K1 and K10 markers)” value in test [1] (setting [4]) is given as “reversed; also recorded: same effect”. For the same compound, in the test on COS-7 cells, the “proliferation of Cos-7 cells (cell numbers)” value is listed as “marked reduction in proliferation”. Also, the “fibroblast proliferation (cell numbers)” value in test [3] is recorded as “greater reduction in proliferation”. In the test with COS-1 cells, the “proliferation of Cos-1 cells (cell numbers)” value is recorded as “marked reduction in proliferation”. In addition, in test [2] (setting [4]), the “effect on RBP-increased proliferation” value is “reversed”.

The values are drawn from patent US8048918B2, “Treatment of hyperproliferative diseases” (Vampex Limited, priority 2000, dated 2011).
